According to patent US20040023994A1 (priority 2002, published 2004):
Where two headings read alike, the source gives them in different places. Marks after values point to notes of the source that are not given here.

Columns and labels:
Leukemia cell lines [1] = assay: cells
Breast cell lines [2] = assay: cells
BT-549 = details: for CC50: read-out: LC50
Renal cell lines [3] = test system: Renal cell lines
NSCL cell lines [4] = assay: cells
Melanoma cell lines [5] = assay: cells
Colon cell lines [6] = test system: Colon cell lines
PC-3 = format: cell-based; details: PC-3, Prostate, 48 h
Colon cell lines [7] = assay: cells
Renal cell lines [8] = assay: cells
HCT-15 = details: for CC50: read-out: LC50
Prostate cell lines [9] = assay: cells
Ovarian cell lines = assay: NCI anticancer screen, by tissue type; details: for GI50: read-out: median GI50; for CC50: read-out: median LC50
Breast cell lines [10] = test system: Breast cell lines
[11] = test system: all the cell lines included in the screen; assay: cells
Protocol: cis-AVTP and trans-AVTG were tested in National Cancer Institute's (NCI) 60 cell lines derived from leukemia, melanoma, lung, kidney cancers. Most chemotherapeutic agents currently nd 6-TG, have been tested in this screen and a database he National Institutes of Health. The NCI assigned s-AVTP, and number NSC-722289 to trans-AVTG. tocol used for the cytotoxicity assessment in the NCI e from the National Institutes of Health. Briefly, tumor ma, lung, colon, brain, ovary, breast, prostate, and um containing 5% fetal bovine serum and 2 mM L-glutamine re plated in a 100 μL volume into 96 well microtiter 37° C. in humidified atmosphere supplemented with 5% ach cell line were fixed with trichloroacetic acid for f drug addition (Tz). The drugs, as 400-fold concentrated uted to twice the final maximum test concentration with entamicin. Additional four 10-fold dilutions were made us control. Aliquots (100 μl) of the drug solutions were 100 μl of medium, resulting in the required final drug the plates were incubated at 37° C. in humidified for additional 48 h. The assay was terminated by the w/v) trichloroacetic acid for adherent and suspension minutes at 4° C. The supernatant was discarded, the and air dried. A 100 μl aliquot of 0.4% (w/v) sulforhodamine B (SRB) solution in 1% acetic acid was added to each well, and the plates incubated for 10 minutes at room temperature. After staining, unbound dye was removed by washing five times with 1% acetic acid and the plates air dried. Bound stain was solubilized with 10 mM trizma base, and the absorbance read on a plate reader at a wavelength of 515 nm.
By using time zero (Tz), control growth (C), and test growth in the presence of drug at the five concentration levels (Ti), the percentage growth was calculated at each of the drug concentration levels. Percentage growth inhibition was calculated as:
[(Ti−Tz)/(C−Tz)]×100 for concentrations for which Ti>/=Tz
[(Ti−Tz)/Tz]×100 for concentrations for which Ti<Tz.
Three dose response parameters were calculated for each experimental agent. […] The TGI, the drug concentration resulting in total growth inhibition was calculated from Ti=Tz. The LC50 (the concentration of drug resulting in a 50% reduction in the measured protein at the end of the drug treatment as compared to that at the beginning) indicating a net loss of cells following treatment was calculated from [(Ti−Tz)/Tz]×100=−50. Values were calculated for each of these three parameters if the level of activity is reached; however, if the effect was not reached or was exceeded, the value for that parameter is expressed as greater or less than the maximum or minimum concentration tested.

A-498 cells = assay: MTT cytotoxicity assay; format: cell-based, human
Protocol: (§1) Preliminary studies examining the in vitro cytotoxicity of cis-AVTP and trans-AVTG as compared to the parent drugs, were carried out using the 3-[4,5-dimethylthiazol-2-yl]-2,5-diphenyl tetrazolium bromide (MTT) cytotoxicity assay.

ACHN cells = assay: MTT cytotoxicity assay; format: cell-based, human
Protocol: as §1

Leukemia cell lines [12] = test system: Leukemia cell lines
CNS cell lines [13] = test system: CNS cell lines
CNS cell lines [14] = assay: cells; details: Homo sapiens
Melanoma cell lines [15] = test system: Melanoma cell lines
Prostate cell lines [16] = test system: Prostate cell lines
NSCL cell lines [17] = test system: NSCL cell lines
HOP-62 = details: for CC50: read-out: LC50
[18] = all cell lines of the NCI screen
[19] = HOP-62, Non-Small Cell Lung, 48 h

SMILES: CC(=O)C=CSc1ncnc2nc[nH]c12 [cis-AVTP, 6-(2-acetylvinylthio) purine]
- GI50 (Leukemia cell lines [1]): < 0.5 µM
- GI50 (Leukemia cell lines [1]; read-out: median GI50): 0.19 µM
- CC50 (Leukemia cell lines [1]; read-out: median LC50): > 100 µM
- GI50 (Breast cell lines [2]; read-out: median GI50): 0.55 µM
- CC50 (Breast cell lines [2]; read-out: median LC50): > 100 µM
- TGI (BT-549; BT-549, Breast, 48 h): 3.48 µM
- GI50 (BT-549; Homo sapiens, BT-549, 48 h): 1.24 µM
- CC50 (BT-549; Homo sapiens, BT-549, 48 h): 9.78 µM
- median TGI (Renal cell lines [3]): 2.67 µM
- GI50 (NSCL cell lines [4]; read-out: median GI50): 1.59 µM
- CC50 (NSCL cell lines [4]; read-out: median LC50): 53.7 µM
- GI50 (Melanoma cell lines [5]; read-out: median GI50): 0.48 µM
- CC50 (Melanoma cell lines [5]; read-out: median LC50): 9.58 µM
- median TGI (Colon cell lines [6]): 4.42 µM
- GI50 (PC-3; Homo sapiens): 2.05 µM
- CC50 (PC-3; Homo sapiens, read-out: LC50 (the source's name)): 85.1 µM
- TGI (PC-3): 10.2 µM
- GI50 (Colon cell lines [7]; read-out: median GI50): 1.13 µM
- CC50 (Colon cell lines [7]; read-out: median LC50): 25.3 µM
- GI50 (Renal cell lines [8]; read-out: median GI50): 0.49 µM
- CC50 (Renal cell lines [8]; read-out: median LC50): 10.7 µM
- TGI (HCT-15; HCT-15, Colon, 48 h): 5.98 µM
- GI50 (HCT-15; Homo sapiens, HCT-15, 48 h): 1.88 µM
- CC50 (HCT-15; Homo sapiens, HCT-15, 48 h): 41.3 µM
- GI50 (Prostate cell lines [9]; read-out: median GI50): 1.69 µM
- CC50 (Prostate cell lines [9]; read-out: median LC50): 54.8 µM
- median TGI (Ovarian cell lines; Ovarian): 4.55 µM
- GI50 (Ovarian cell lines): 0.91 µM
- CC50 (Ovarian cell lines): 27.7 µM
- median TGI (Breast cell lines [10]): 3.98 µM
- GI50 [11]: < 2 µM
- median TGI [11, 18]: 4.56 µM
- CC50 ([11]; read-out: LC50): < 15 µM
- GI50 ([11]; read-out: median GI50): 0.6 µM
- CC50 ([11]; read-out: median LC50): 38.6 µM
- IC50 (A-498 cells; Homo sapiens, A498, A-498, 24 h drug incubation): 107 ± 14.7 µM
- IC50 (A-498 cells; Homo sapiens, A498, A-498, 48 h drug incubation): 24.6 ± 4 µM
- IC50 (A-498 cells; Homo sapiens, A498, A-498, 72 h incubation, MTT): 8 ± 1.2 µM
- IC50 (A-498 cells; Homo sapiens, A498, A-498, 96 h drug incubation): 5.5 ± 0.9 µM
- IC50 (ACHN cells; Homo sapiens, 24 h drug incubation): 58.2 ± 1.7 µM
- IC50 (ACHN cells; Homo sapiens, 48 h drug incubation): 8.7 ± 0.9 µM
- IC50 (ACHN cells; Homo sapiens, 72 h incubation, MTT): 3.7 ± 0.7 µM
- IC50 (ACHN cells; Homo sapiens, 96 h drug incubation): 3.5 ± 0.4 µM
- median TGI (Leukemia cell lines [12]; Leukemia): 52.5^# μM
- TGI (Leukemia cell lines [12]; leukemia cell lines CCRF-CEM, HL-60(TB), and RPMI-8226): < 5 µM
- median TGI (CNS cell lines [13]): 10.7 µM
- GI50 (CNS cell lines [14]; read-out: median GI50): 1.69 µM
- CC50 (CNS cell lines [14]; read-out: median LC50): 52.7 µM
- median TGI (Melanoma cell lines [15]): 3.24 µM
- median TGI (Prostate cell lines [16]): 7.09 µM
- median TGI (NSCL cell lines [17]): 12.2 µM
- TGI (HOP-62; [19]): 21.2 µM
- GI50 (HOP-62; Homo sapiens, HOP-62, 48 h): 0.4 µM
- CC50 (HOP-62; Homo sapiens, HOP-62, 48 h): 88.9 µM

SMILES: CC(=O)C=CSc1nc(N)nc2nc[nH]c12 [trans-AVTG, 6-(2-acetylvinylthio) guanine]
- GI50 (BT-549; BT-549, Breast, 48 h): 0.39 µM
- TGI (BT-549; BT-549, Breast, 48 h): 5.75 µM
- CC50 (BT-549; BT-549, Breast, 48 h): 43.1 µM
- median TGI (Renal cell lines [3]): 14.3 µM
- GI50 (Renal cell lines [3]; read-out: median GI50): 0.98 µM
- CC50 (Renal cell lines [3]; read-out: median LC50): 52.8 µM
- median TGI (Colon cell lines [6]): 9.50 µM
- GI50 (Colon cell lines [6]; read-out: median GI50): 1.43 µM
- CC50 (Colon cell lines [6]; read-out: median LC50): 62.6 µM
- GI50 (PC-3): 3.96 µM
- TGI (PC-3): 19.7 µM
- GI50 (HCT-15; HCT-15, Colon, 48 h): 1.73 µM
- TGI (HCT-15; HCT-15, Colon, 48 h): 19.4 µM
- CC50 (HCT-15; HCT-15, Colon, 48 h): > 100 µM
- median TGI (Ovarian cell lines; Ovarian): 3.41 µM
- GI50 (Ovarian cell lines; Ovarian): 0.39 µM
- CC50 (Ovarian cell lines; Ovarian): 51.4 µM
- median TGI (Breast cell lines [10]): 11.6 µM
- GI50 (Breast cell lines [10]; read-out: median GI50): 0.97 µM
- CC50 (Breast cell lines [10]; read-out: median LC50): 88.1 µM
- median TGI [11, 18]: 12.9 µM
- GI50 ([11]; read-out: median GI50, all cell lines of the NCI screen): 0.98 µM
- CC50 ([11]; read-out: median LC50, all cell lines of the NCI screen): 76.2 µM
- IC50 (A-498 cells; A-498, 72 h incubation, MTT): 9.7 ± 2 µM
- IC50 (ACHN cells; 72 h incubation, MTT): 4.1 ± 0.4 µM
- median TGI (Leukemia cell lines [12]; Leukemia): 13.4 µM
- GI50 (Leukemia cell lines [12]; read-out: median GI50, Leukemia): 0.37 µM
- CC50 (Leukemia cell lines [12]; read-out: median LC50, Leukemia): > 100 µM
- median TGI (CNS cell lines [13]): 32.4 µM
- GI50 (CNS cell lines [13]; read-out: median GI50): 3.68 µM
- CC50 (CNS cell lines [13]; read-out: median LC50): > 100 µM
- median TGI (Melanoma cell lines [15]): 10.1 µM
- GI50 (Melanoma cell lines [15]; read-out: median GI50): 0.73 µM
- CC50 (Melanoma cell lines [15]; read-out: median LC50): 53.1 µM
- median TGI (Prostate cell lines [16]): 19.7 µM
- GI50 (Prostate cell lines [16]; read-out: median GI50): 3.96 µM
- CC50 (Prostate cell lines [16]; read-out: median LC50): 62.5 µM
- median TGI (NSCL cell lines [17]): 19.4 µM
- GI50 (NSCL cell lines [17]; read-out: median GI50): 2.52 µM
- CC50 (NSCL cell lines [17]; read-out: median LC50): 61.5 µM
- GI50 (HOP-62; [19]): 1.62 µM
- TGI (HOP-62; [19]): >100 µM
- CC50 (HOP-62; [19]): > 100 µM
